Measured values as given in ChEMBL document CHEMBL1926646 (Bioorg Med Chem, 2011).
Each block holds one compound with its values, some of them ahead of it. The source made the active and inactive calls. No cut-off for these calls is given here.

What was measured:
[1] = Drug excretion in dog feces assessed as unchanged drug at 1 mg/kg, iv measured over 24 hrs; assay type: ADME, organism-based, Canis lupus familiaris; parameters: dose 1 mg/kg, route intravenous; conditions: faeces, read-out: AE
[2] = Intrinsic clearance in rat liver microsomes; assay type: ADME, Microsome
[3] = Intrinsic clearance in dog liver microsomes; assay type: ADME, Canis lupus familiaris, Microsome
[4] = Intrinsic clearance in monkey liver microsomes; assay type: ADME, Macaca mulatta, Microsome; conditions: rhesus monkey
[5] = Intrinsic clearance in human liver microsomes; assay type: ADME, Microsome
[6] = Drug level in Sprague-Dawley rat plasma at 3 mg/kg at Tmax; assay type: ADME, organism-based; parameters: dose 3 mg/kg; conditions: read-out: Drug uptake
Dipeptidyl peptidase 8 = Dipeptidyl peptidase 8 (Homo sapiens, UniProt Q6V1X1); test: Inhibition of human recombinant DPP-8 expressed in Sf9 cells using H-Gly-Pro-AMC as substrate preincubated for 30 mins before substrate addition measured after 20 mins by fluorescence assay
Sequence of Dipeptidyl peptidase 8 (Q6V1X1 whole entry): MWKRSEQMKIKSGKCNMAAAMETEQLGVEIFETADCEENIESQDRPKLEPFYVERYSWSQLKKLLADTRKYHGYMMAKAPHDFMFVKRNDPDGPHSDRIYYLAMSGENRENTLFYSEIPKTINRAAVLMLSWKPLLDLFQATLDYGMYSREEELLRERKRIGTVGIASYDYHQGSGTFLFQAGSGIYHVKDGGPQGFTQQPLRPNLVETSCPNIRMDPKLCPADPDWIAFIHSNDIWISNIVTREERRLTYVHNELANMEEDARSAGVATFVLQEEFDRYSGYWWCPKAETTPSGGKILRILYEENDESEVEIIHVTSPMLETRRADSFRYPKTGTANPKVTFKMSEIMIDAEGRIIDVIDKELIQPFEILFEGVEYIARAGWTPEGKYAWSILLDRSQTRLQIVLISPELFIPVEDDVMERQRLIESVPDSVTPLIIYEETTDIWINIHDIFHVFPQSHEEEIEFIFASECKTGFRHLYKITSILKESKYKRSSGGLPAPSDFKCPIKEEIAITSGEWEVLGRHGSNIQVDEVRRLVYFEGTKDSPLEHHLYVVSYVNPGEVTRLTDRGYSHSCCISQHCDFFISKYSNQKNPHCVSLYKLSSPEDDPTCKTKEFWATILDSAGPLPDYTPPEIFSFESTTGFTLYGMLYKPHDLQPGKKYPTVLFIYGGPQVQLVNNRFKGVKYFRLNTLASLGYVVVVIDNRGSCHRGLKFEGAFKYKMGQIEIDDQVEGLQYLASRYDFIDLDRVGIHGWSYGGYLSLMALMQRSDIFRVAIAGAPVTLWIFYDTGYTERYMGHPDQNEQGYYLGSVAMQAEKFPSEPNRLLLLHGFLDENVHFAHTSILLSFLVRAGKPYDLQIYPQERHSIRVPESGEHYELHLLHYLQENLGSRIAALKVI

Dipeptidyl peptidase 9 = Dipeptidyl peptidase 9 (Homo sapiens, UniProt Q86TI2); test: Inhibition of human recombinant DPP-9 expressed in Sf9 cells using H-Gly-Pro-AMC as substrate preincubated for 30 mins before substrate addition measured after 20 mins by fluorescence assay
Sequence of Dipeptidyl peptidase 9 (Q86TI2 whole entry): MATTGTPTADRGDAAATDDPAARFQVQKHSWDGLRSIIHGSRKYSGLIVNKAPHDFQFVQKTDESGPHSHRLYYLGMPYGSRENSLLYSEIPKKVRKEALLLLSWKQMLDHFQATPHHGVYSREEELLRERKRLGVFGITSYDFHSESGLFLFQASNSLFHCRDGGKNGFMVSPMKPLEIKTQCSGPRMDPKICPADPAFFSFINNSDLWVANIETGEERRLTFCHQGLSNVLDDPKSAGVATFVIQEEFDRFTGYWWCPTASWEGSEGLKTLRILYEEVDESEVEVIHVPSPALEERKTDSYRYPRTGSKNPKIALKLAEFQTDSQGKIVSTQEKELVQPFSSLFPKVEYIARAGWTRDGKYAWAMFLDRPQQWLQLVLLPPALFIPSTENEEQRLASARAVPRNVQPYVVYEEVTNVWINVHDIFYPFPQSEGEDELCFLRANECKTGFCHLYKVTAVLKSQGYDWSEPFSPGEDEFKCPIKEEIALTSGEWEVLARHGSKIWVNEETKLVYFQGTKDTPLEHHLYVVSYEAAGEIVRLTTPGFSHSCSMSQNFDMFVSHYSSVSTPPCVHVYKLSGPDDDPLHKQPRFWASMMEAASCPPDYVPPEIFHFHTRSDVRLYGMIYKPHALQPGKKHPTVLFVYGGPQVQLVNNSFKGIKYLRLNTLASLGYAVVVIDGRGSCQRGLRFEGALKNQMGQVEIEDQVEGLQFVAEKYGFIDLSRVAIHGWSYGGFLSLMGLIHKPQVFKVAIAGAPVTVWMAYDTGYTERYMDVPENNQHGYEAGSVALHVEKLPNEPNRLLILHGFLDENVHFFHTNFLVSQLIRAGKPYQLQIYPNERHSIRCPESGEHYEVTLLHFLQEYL

[7] = Total clearance in Sprague-Dawley rat at 1 mg/kg, iv; assay type: ADME, organism-based; parameters: dose 1 mg/kg, route intravenous; conditions: in vivo
Rattus norvegicus [8] = test: Volume of distribution at steady state in Sprague-Dawley rat at 1 mg/kg, iv; assay type: ADME, organism-based; parameters: dose 1 mg/kg, route intravenous; conditions: in vivo
[9] = Cmax in Sprague-Dawley rat at 10 mg/kg, po; assay type: ADME, organism-based; parameters: dose 10 mg/kg, route oral; conditions: in vivo
[10] = Cmax in Sprague-Dawley rat at 3 mg/kg, po; assay type: ADME, organism-based; parameters: dose 3 mg/kg, route oral; conditions: in vivo
[11] = Tmax in Sprague-Dawley rat at 10 mg/kg, po; assay type: ADME, organism-based; parameters: dose 10 mg/kg, route oral; conditions: in vivo
[12] = Tmax in Sprague-Dawley rat at 3 mg/kg, po; assay type: ADME, organism-based; parameters: dose 3 mg/kg, route oral; conditions: in vivo
[13] = Terminal half life in Sprague-Dawley rat at 10 mg/kg, po; assay type: ADME, organism-based; parameters: dose 10 mg/kg, route oral; conditions: in vivo, read-out: beta t1/2 (converted)
Rattus norvegicus [14] = test: AUC in Sprague-Dawley rat at 10 mg/kg, po; assay type: ADME, organism-based, Plasma; parameters: dose 10 mg/kg, route oral; conditions: in vivo
[15] = Oral bioavailability in Sprague-Dawley rat at 10 mg/kg; assay type: ADME, organism-based; conditions: in vivo
[16] = Total clearance in Beagle dog at 0.2 mg/kg, iv; assay type: ADME, organism-based, Canis lupus familiaris; parameters: dose 0.2 mg/kg, route intravenous; conditions: in vivo
Canis familiaris [17] = test: Volume of distribution at steady state in Beagle dog at 0.2 mg/kg, iv; assay type: ADME, organism-based, Canis lupus familiaris; parameters: dose 0.2 mg/kg, route intravenous; conditions: in vivo
[18] = Cmax in Beagle dog at 0.5 mg/kg, po; assay type: ADME, organism-based, Canis lupus familiaris; parameters: dose 0.5 mg/kg, route oral; conditions: in vivo
[19] = Tmax in Beagle dog at 0.5 mg/kg, po; assay type: ADME, organism-based, Canis lupus familiaris; parameters: dose 0.5 mg/kg, route oral; conditions: in vivo
[20] = Terminal half life in Beagle dog at 0.5 mg/kg, po; assay type: ADME, organism-based, Canis lupus familiaris; parameters: dose 0.5 mg/kg, route oral; conditions: in vivo, read-out: beta t1/2 (converted)
Canis familiaris [21] = test: AUC in Beagle dog at 0.5 mg/kg, po; assay type: ADME, organism-based, Canis lupus familiaris, Plasma; parameters: dose 0.5 mg/kg, route oral; conditions: in vivo
[22] = Oral bioavailability in Beagle dog at 0.5 mg/kg; assay type: ADME, organism-based, Canis lupus familiaris; conditions: in vivo
[23] = Plasma protein binding in rat at 20 ng/ml after 0.5 hrs by LC-MS/MS analysis; assay type: ADME, cell-free; conditions: read-out: PPB (converted)
[24] = Plasma protein binding in rat at 2000 ng/ml after 0.5 hrs by LC-MS/MS analysis; assay type: ADME, cell-free; conditions: read-out: PPB (converted)
[25] = Plasma protein binding in dog at 20 ng/ml after 0.5 hrs by LC-MS/MS analysis; assay type: ADME, cell-free, Canis lupus familiaris; conditions: read-out: PPB (converted)
[26] = Plasma protein binding in dog at 2000 ng/ml after 0.5 hrs by LC-MS/MS analysis; assay type: ADME, cell-free, Canis lupus familiaris; conditions: read-out: PPB (converted)
[27] = Plasma protein binding in human at 20 ng/ml after 0.5 hrs by LC-MS/MS analysis; assay type: ADME, cell-free; conditions: read-out: PPB (converted)
[28] = Plasma protein binding in human at 2000 ng/ml after 0.5 hrs by LC-MS/MS analysis; assay type: ADME, cell-free; conditions: read-out: PPB (converted)
Rattus norvegicus [29] = test: Inhibition of plasma DPP-4 activity in Wistar/ST rat at 3 mg/kg, po pretreated 30 mins before glucose challenge measured for 2 hrs during oral glucose tolerance test; assay type: functional
Rattus norvegicus [30] = test: Inhibition of plasma DPP-4 activity in Wistar/ST rat at 0.1 mg/kg, po pretreated 30 mins before glucose challenge measured for 2 hrs during oral glucose tolerance test; assay type: functional
Cytochrome P450 3A4 [31] = biological target: T1, Cytochrome P450 3A4 (Homo sapiens, UniProt P08684); test: Inhibition of CYP3A4; assay type: ADME
T1 sequence (P08684 whole entry): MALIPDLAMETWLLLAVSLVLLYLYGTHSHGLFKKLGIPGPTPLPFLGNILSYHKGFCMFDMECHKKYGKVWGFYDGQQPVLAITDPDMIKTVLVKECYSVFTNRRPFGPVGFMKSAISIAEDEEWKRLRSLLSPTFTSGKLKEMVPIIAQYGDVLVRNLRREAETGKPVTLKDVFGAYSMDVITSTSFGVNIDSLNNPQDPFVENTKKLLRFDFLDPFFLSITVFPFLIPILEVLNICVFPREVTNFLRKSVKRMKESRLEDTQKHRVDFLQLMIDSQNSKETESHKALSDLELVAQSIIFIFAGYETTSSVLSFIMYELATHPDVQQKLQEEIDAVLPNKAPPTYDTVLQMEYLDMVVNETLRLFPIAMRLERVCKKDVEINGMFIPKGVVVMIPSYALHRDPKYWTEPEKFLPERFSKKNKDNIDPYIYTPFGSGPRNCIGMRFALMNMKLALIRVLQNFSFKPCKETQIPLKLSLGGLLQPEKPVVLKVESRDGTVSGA

Cytochrome P450 2C19 = Cytochrome P450 2C19 (Homo sapiens, UniProt P33261); test: Inhibition of CYP2C19; assay type: ADME
Sequence of Cytochrome P450 2C19 (P33261 whole entry): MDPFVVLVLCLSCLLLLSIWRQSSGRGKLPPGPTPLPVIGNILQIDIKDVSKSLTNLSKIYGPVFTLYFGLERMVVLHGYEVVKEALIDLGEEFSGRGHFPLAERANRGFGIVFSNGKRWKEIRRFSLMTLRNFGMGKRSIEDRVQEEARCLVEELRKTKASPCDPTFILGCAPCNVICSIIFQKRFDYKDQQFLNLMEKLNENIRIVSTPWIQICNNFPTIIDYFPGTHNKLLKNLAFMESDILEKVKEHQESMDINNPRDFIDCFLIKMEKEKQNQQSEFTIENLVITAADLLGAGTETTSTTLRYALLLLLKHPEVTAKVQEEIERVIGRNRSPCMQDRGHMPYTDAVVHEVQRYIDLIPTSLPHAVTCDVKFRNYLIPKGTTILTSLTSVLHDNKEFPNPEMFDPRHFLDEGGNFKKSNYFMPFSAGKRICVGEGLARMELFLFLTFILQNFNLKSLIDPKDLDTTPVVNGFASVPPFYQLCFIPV

Cytochrome P450 2C9 [32] = biological target: T2, Cytochrome P450 2C9 (Homo sapiens, UniProt P11712); test: Inhibition of CYP2C9; assay type: ADME
T2 sequence (P11712 whole entry): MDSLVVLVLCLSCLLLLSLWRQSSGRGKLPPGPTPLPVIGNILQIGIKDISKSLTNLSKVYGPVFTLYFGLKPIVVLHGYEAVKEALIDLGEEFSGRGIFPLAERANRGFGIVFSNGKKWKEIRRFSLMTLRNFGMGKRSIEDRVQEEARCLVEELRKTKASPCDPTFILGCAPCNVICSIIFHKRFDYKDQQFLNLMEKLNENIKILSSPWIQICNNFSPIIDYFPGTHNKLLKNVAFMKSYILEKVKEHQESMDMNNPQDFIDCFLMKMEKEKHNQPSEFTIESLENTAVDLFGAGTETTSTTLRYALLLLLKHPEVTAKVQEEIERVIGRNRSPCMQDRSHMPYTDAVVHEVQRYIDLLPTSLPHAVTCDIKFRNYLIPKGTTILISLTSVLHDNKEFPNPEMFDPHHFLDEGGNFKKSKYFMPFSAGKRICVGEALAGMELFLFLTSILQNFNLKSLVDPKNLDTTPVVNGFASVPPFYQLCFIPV

Cytochrome P450 1A2 [33] = biological target: T3, Cytochrome P450 1A2 (Homo sapiens, UniProt P05177); test: Inhibition of CYP1A2; assay type: ADME
T3 sequence (P05177 whole entry): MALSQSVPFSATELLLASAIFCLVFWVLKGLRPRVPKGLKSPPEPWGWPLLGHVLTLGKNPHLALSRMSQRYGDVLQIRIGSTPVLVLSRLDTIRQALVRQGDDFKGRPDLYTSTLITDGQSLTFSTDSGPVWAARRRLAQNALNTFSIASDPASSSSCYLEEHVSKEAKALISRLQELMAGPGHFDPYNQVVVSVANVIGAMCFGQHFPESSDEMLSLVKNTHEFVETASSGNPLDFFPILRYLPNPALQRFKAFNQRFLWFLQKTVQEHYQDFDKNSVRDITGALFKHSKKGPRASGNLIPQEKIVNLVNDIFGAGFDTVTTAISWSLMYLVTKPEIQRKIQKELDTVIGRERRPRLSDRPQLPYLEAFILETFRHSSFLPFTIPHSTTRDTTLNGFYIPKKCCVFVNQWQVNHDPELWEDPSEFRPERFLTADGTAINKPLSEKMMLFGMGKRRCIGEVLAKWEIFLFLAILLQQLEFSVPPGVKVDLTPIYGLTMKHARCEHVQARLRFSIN

Cytochrome P450 2D6 = Cytochrome P450 2D6 (Homo sapiens, UniProt P10635); test: Inhibition of CYP2D6; assay type: ADME
Sequence of Cytochrome P450 2D6 (P10635 whole entry): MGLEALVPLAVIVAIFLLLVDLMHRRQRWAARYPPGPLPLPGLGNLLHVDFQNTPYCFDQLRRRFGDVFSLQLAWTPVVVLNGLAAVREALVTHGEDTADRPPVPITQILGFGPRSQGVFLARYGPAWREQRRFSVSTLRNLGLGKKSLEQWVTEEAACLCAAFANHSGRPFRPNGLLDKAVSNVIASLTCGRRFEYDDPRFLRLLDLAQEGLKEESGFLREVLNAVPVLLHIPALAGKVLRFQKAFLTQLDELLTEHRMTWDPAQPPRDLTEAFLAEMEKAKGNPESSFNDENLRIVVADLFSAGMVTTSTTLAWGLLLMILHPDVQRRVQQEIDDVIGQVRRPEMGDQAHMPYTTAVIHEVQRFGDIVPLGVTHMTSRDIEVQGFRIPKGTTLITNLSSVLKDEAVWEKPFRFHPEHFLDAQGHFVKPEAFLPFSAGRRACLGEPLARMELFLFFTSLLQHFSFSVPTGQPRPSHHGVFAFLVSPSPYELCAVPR

Cytochrome P450 3A4 [34] = biological target: T1, Cytochrome P450 3A4; test: Induction of CYP3A4 at 50 uM; assay type: ADME
Cytochrome P450 2C8 = biological target: T4, Cytochrome P450 2C8 (Homo sapiens, UniProt P10632); test: Induction of CYP2C8 at 50 uM; assay type: ADME
T4 sequence (P10632 whole entry): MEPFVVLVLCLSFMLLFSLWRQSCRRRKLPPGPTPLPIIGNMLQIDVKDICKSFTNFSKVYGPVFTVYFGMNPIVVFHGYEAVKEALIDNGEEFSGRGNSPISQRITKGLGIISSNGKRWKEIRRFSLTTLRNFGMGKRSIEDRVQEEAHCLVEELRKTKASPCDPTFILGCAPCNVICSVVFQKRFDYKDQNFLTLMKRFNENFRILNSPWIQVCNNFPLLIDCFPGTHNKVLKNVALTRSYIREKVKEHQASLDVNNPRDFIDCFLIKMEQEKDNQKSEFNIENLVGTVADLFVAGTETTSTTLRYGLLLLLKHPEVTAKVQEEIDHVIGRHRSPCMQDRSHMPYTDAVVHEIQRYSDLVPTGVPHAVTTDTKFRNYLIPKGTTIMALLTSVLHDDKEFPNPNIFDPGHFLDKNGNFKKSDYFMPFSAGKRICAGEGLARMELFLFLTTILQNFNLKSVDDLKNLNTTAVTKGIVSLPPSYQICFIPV

Cytochrome P450 2C9 [35] = biological target: T2, Cytochrome P450 2C9; test: Induction of CYP2C9 at 50 uM; assay type: ADME
Cytochrome P450 1A2 [36] = biological target: T3, Cytochrome P450 1A2; test: Induction of CYP1A2 at 50 uM; assay type: ADME
[37] = biological target: Voltage-gated inwardly rectifying potassium channel KCNH2 (Homo sapiens, UniProt Q12809); test: Inhibition of human ERG expressed in HEK293 cells by patch clamp assay; assay type: cell-based
Sequence of Voltage-gated inwardly rectifying potassium channel KCNH2 (Q12809 whole entry): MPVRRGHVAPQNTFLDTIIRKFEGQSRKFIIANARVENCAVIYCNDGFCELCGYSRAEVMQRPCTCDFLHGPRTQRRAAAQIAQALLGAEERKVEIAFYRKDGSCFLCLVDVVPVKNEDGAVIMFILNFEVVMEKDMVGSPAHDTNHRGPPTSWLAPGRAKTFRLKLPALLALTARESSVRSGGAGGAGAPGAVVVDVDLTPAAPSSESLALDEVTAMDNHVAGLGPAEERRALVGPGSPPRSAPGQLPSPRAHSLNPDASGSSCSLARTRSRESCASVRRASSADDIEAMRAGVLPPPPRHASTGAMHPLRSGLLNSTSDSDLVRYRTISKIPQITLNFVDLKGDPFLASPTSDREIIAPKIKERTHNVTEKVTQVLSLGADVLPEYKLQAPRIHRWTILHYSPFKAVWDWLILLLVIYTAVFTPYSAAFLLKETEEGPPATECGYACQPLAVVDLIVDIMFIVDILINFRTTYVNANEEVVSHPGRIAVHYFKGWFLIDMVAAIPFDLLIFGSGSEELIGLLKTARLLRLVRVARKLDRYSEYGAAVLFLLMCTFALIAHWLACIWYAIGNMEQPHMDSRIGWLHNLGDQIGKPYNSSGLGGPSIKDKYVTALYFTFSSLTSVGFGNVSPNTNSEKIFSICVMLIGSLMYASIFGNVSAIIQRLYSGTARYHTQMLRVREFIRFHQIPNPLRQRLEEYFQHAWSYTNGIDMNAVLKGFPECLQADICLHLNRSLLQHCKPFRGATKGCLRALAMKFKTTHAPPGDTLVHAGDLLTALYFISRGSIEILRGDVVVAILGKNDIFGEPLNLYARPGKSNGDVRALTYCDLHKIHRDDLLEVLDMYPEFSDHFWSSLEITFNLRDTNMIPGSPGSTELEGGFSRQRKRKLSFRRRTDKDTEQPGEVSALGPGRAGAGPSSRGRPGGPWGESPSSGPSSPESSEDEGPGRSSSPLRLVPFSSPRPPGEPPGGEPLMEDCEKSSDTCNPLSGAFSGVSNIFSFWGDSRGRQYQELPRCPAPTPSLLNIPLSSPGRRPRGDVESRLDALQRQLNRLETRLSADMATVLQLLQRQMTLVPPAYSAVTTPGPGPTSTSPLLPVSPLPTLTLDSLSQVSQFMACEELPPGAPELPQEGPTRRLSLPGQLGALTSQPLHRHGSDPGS

Salmonella typhimurium = test: Mutagenic activity in Salmonella Typhimurium by Ames test; assay type: toxicity, organism-based; conditions: salmonella enterica subsp. enterica serovar typhimurium
[38] = Drug excretion in bile-duct cannulated Sprague-Dawley rat urine assessed as unchanged drug at 1 mg/kg, iv measured over 24 hrs; assay type: ADME, organism-based; parameters: dose 1 mg/kg, route intravenous; conditions: read-out: AE
[39] = Drug excretion in bile-duct cannulated Sprague-Dawley rat bile assessed as unchanged drug at 1 mg/kg, iv measured over 24 hrs; assay type: ADME, organism-based; parameters: dose 1 mg/kg, route intravenous; conditions: read-out: AE
[40] = Drug excretion in bile-duct cannulated Sprague-Dawley rat urine assessed as unchanged drug at 5 mg/kg, iv measured over 24 hrs; assay type: ADME, organism-based; parameters: dose 5 mg/kg, route intravenous; conditions: read-out: AE
[41] = Drug excretion in bile-duct cannulated Sprague-Dawley rat bile assessed as unchanged drug at 5 mg/kg, iv measured over 24 hrs; assay type: ADME, organism-based; parameters: dose 5 mg/kg, route intravenous; conditions: read-out: AE
[42] = Drug excretion in dog urine assessed as unchanged drug at 1 mg/kg, iv measured over 24 hrs; assay type: ADME, organism-based, Canis lupus familiaris; parameters: dose 1 mg/kg, route intravenous; conditions: read-out: AE
Dipeptidyl peptidase 2 = Dipeptidyl peptidase 2 (Homo sapiens, UniProt Q9UHL4); test: Inhibition of DPP-2 expressed in human Caco-2 cells using H-Lys-Ala-AMC as substrate preincubated for 30 mins before substrate addition measured after 20 mins by fluorescence assay; assay type: cell-based
Rattus norvegicus [43] = test: Inhibition of plasma DPP-4 activity in orally dosed Wistar/ST rat pretreated 30 mins before glucose challenge measured for 2 hrs during oral glucose tolerance test; assay type: functional, organism-based
Rattus norvegicus [44] = test: Antidiabetic activity in Wistar/ST rat plasma assessed as reduction in glucose AUC (0 to 60 mins) at 1 mg/kg, po pretreated 30 mins before glucose challenge measured for 2 hrs by oral glucose tolerance test; assay type: functional, organism-based; parameters: dose 1 mg/kg
Rattus norvegicus [45] = test: Increase in insulin level in Wistar/ST rat at 0.1 to 1 mg/kg, po pretreated 30 mins before glucose challenge measured after 10 mins; assay type: functional, organism-based

CLint scaled [2]: 23.3 mL/min/kg
CLint scaled [3]: 1.67 mL/min/kg
CLint scaled [4]: 8.33 mL/min/kg
CLint scaled [5]: 5 mL/min/kg
Cmax [6]: 14 nM
IC50 (Dipeptidyl peptidase 8): 68 µM
IC50 (Dipeptidyl peptidase 9): 60 µM
clearance [7]: 33.3 mL/min/kg
Vdss (Rattus norvegicus [8]): 0.68 L/kg
Cmax [9]: 309 ng/mL
Cmax [10]: 62 ng/mL
Tmax [11]: 0.8 h
Tmax [12]: 2.3 h
half-life [13]: 1.9 h
AUC (Rattus norvegicus [14]): 1160 ng·h/mL
bioavailability [15]: 23%
clearance [16]: 10.8 mL/min/kg
Vdss (Canis familiaris [17]): 0.83 L/kg
Cmax [18]: 261 ng/mL
Tmax [19]: 1.5 h
half-life [20]: 1 h
AUC (Canis familiaris [21]): 824 ng·h/mL
bioavailability [22]: 100%
fraction unbound at 0.5 h, 20 ng/ml [23]: 0.227
fraction unbound at 0.5 h, 2000 ng/ml [24]: 0.229
fraction unbound at 0.5 h, 20 ng/ml [25]: 0.352
fraction unbound at 0.5 h, 2000 ng/ml [26]: 0.482
fraction unbound at 0.5 h, 20 ng/ml [27]: 0.708
fraction unbound at 0.5 h, 2000 ng/ml [28]: 0.736
IC50 (Cytochrome P450 3A4 [31]): > 10 µM
IC50 (Cytochrome P450 2C19): > 10 µM
IC50 (Cytochrome P450 2C9 [32]): > 10 µM
IC50 (Cytochrome P450 1A2 [33]): > 10 µM
IC50 (Cytochrome P450 2D6): > 10 µM
Activity (Cytochrome P450 3A4 [34]): Not Active
Activity (Cytochrome P450 2C8): Not Active
Activity (Cytochrome P450 2C9 [35]): Not Active
Activity (Cytochrome P450 1A2 [36]): Not Active
SMILES: Cc1cc2ncc(C(=O)NCC(C)(C)NCC(=O)N3CCC[C@H]3C#N)cn2n1.Cl [ANAGLIPTIN HYDROCHLORIDE]
dose excreted at 24 h [1]: 24%
inhibition in vivo at 3 mg/kg (Rattus norvegicus [29]): 95%
inhibition in vivo at 0.1 mg/kg (Rattus norvegicus [30]): 30%
IC50 [37]: > 500 µM
Activity (Salmonella typhimurium): Non-toxic
dose excreted at 24 h [38]: 30%
dose excreted at 24 h [39]: 13%
dose excreted at 24 h [40]: 41%
dose excreted at 24 h [41]: 14%
dose excreted at 24 h [42]: 32%

IC50 (Dipeptidyl peptidase 2): 177 µM
SMILES: Cc1cc2ncc(C(=O)NCC(C)(C)NCC(=O)N3CCC[C@H]3C#N)cn2n1 [ANAGLIPTIN]

IC50 (Dipeptidyl peptidase 8): > 100 µM
SMILES: Cc1nc2cc(C(C)(C)C)nn2c(C)c1C(=O)NCC(C)(C)NCC(=O)N1CCC[C@H]1C#N

SMILES: Cc1cc2ncc(C(=O)NCC(C)(C)NCC(=O)N3CCC[C@H]3C#N)cn2n1
inhibition (Rattus norvegicus [43]): Dose-dependent effect
Activity (Rattus norvegicus [44]): Active
Activity (Rattus norvegicus [45]): Active
